Measured values taken from publication PMC12751012, “Nanoscale Direct-to-Biology Optimization and Structural Insights into Selective S. aureus TrmD Inhibitors” (Journal of Medicinal Chemistry, 2025).

Molecular target: T1, S. aureus TrmD (Staphylococcus aureus, UniProt Q2FZ43)
T1 construct: made in house; host or cells: E. coli BL21
T1 sequence (Q2FZ43 1-245): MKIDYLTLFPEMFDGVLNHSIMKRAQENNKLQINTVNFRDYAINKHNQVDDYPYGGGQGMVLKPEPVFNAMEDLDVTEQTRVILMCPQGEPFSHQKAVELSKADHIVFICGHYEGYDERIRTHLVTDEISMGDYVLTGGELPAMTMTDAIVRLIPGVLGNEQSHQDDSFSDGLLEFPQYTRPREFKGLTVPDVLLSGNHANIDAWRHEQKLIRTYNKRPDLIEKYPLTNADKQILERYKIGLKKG
Test: nanoSAR direct-to-biology FP displacement screening of crude triazoles
Type: binding
Details: crude triazole at 1 μM, assuming full conversion; 500 nM TrmD, 10 nM tracer 4; read-out: % displaced tracer
Procedure, shortened: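 Crude CuAAC triazoles from alkyne 7 and 320 diverse azides were screened by FP displacement of 10 nM tracer 4 from 500 nM S. aureus TrmD. Buffer was 40 mM Tris HCl, 100 mM NaCl, 10 mM MgCl2, 5% glycerol, pH 7.5.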

Row | SMILES | inhibition at 1 µM
1 | O=c1[nH]cnc2[nH]cc(-c3cn(CCCN4CCCOCC4)nn3)c12 [Compound 02A10, O=C1NC=NC=2NC=C(C=3N=NN(C3)CCC[N@@H+]4CCOCCC4)C12] | 23%
2 | O=c1[nH]cnc2[nH]cc(-c3cn(-c4cccc5c4CCCC5)nn3)c12 [Compound 02A11, O=C1NC=NC=2NC=C(C=3N=NN(c4c5c(ccc4)CCCC5)C3)C12] | 14%
3 | O=c1[nH]cnc2[nH]cc(-c3cn(C4(C(F)F)CC4)nn3)c12 [Compound 02A12, FC(F)C1(N2N=NC(C=3C=4C(=O)NC=NC4NC3)=C2)CC1] | 18%
4 | O=c1[nH]cnc2[nH]cc(-c3cn(CCCCCO)nn3)c12 [Compound 02B01, O=C1NC=NC=2NC=C(C=3N=NN(C3)CCCCCO)C12] | 27%
5 | O=c1[nH]cnc2[nH]cc(-c3cn(-c4ccc5nccnc5c4)nn3)c12 [Compound 02B02, O=C1NC=NC=2NC=C(C=3N=NN(c4cc5nccnc5cc4)C3)C12] | 8.54%
6 | Cc1ccc(-n2cc(-c3c[nH]c4nc[nH]c(=O)c34)nn2)cc1Cl [Compound 02B03, Clc1c(ccc(N2N=NC(C=3C=4C(=O)NC=NC4NC3)=C2)c1)C] | 0.61%
7 | O=c1[nH]cnc2[nH]cc(-c3cn(C4CCOCC4)nn3)c12 [Compound 02B04, O=C1NC=NC=2NC=C(C=3N=NN(C3)C4CCOCC4)C12] | 10%
8 | O=c1[nH]cnc2[nH]cc(-c3cn(-c4ccc(-c5ccccc5)cc4)nn3)c12 [Compound 02B05, O=C1NC=NC=2NC=C(C=3N=NN(c4ccc(c5ccccc5)cc4)C3)C12] | 3%
9 | NS(=O)(=O)c1ccc(-n2cc(-c3c[nH]c4nc[nH]c(=O)c34)nn2)cc1 [Compound 02B06, S(=O)(=O)(N)c1ccc(N2N=NC(C=3C=4C(=O)NC=NC4NC3)=C2)cc1] | 17%
10 | O=c1[nH]cnc2[nH]cc(-c3cn(Cc4cccs4)nn3)c12 [Compound 02B07, S1C(=CC=C1)CN2N=NC(C=3C=4C(=O)NC=NC4NC3)=C2] | 85%
11 | COc1ccccc1C(C)(C)n1cc(-c2c[nH]c3nc[nH]c(=O)c23)nn1 [Compound 02B08, O=C1NC=NC=2NC=C(C=3N=NN(C3)C(c4c(OC)cccc4)(C)C)C12] | 5.49%
12 | CC[C@@H](c1ccccc1F)n1cc(-c2c[nH]c3nc[nH]c(=O)c23)nn1 [Compound 02B09, Fc1c(cccc1)[C@@H](N2N=NC(C=3C=4C(=O)NC=NC4NC3)=C2)CC] | 24%
13 | CC(C)(C)OC(=O)N1CC(c2ocnc2Cn2cc(-c3c[nH]c4nc[nH]c(=O)c34)nn2)C1 [Compound 02B10, O=C(OC(C)(C)C)N1C[C@H](C=2OC=NC2CN3N=NC(C=4C=5C(=O)NC=NC5NC4)=C3)C1] | 37%
14 | O=C(NCCCn1cc(-c2c[nH]c3nc[nH]c(=O)c23)nn1)c1c[nH]nn1 [Compound 02B11, O=C1NC=NC=2NC=C(C=3N=NN(C3)CCCNC(=O)C=4N=NNC4)C12] | 10%
15 | O=c1[nH]cnc2[nH]cc(-c3cn(CCO[C@H]4CCOC4)nn3)c12 [Compound 02B12, O=C1NC=NC=2NC=C(C=3N=NN(C3)CCO[C@@H]4COCC4)C12] | 56%
16 | Cc1ccc(O)c(Cn2cc(-c3c[nH]c4nc[nH]c(=O)c34)nn2)n1 [Compound 02C01, O=C1NC=NC=2NC=C(C=3N=NN(C3)Cc4nc(ccc4O)C)C12] | 32%
17 | O=c1[nH]cnc2[nH]cc(-c3cn(CCc4c[nH]c5ccccc45)nn3)c12 [Compound 02C02, O=C1NC=NC=2NC=C(C=3N=NN(C3)CCC=4c5c(NC4)cccc5)C12] | 56%
18 | O=c1[nH]cnc2[nH]cc(-c3cn(-c4ccc(Cl)cn4)nn3)c12 [Compound 02C03, Clc1cnc(N2N=NC(C=3C=4C(=O)NC=NC4NC3)=C2)cc1] | -1.83%
19 | O=c1[nH]cnc2[nH]cc(-c3cn(C[C@H](O)c4ccc(Cl)cc4)nn3)c12 [Compound 02C04, Clc1ccc(cc1)[C@@H](O)CN2N=NC(C=3C=4C(=O)NC=NC4NC3)=C2] | 85%
20 | O=c1[nH]cnc2[nH]cc(-c3cn([C@H]4CC5(CCCC5)Oc5ccc(Cl)cc54)nn3)c12 [Compound 02C05, Clc1cc2c(OC3(C[C@@H]2N4N=NC(C=5C=6C(=O)NC=NC6NC5)=C4)CCCC3)cc1] | 55%
21 | COC1([C@H](CO)n2cc(-c3c[nH]c4nc[nH]c(=O)c34)nn2)CCC1 [Compound 02C06, O=C1NC=NC=2NC=C(C=3N=NN(C3)[C@H](C4(OC)CCC4)CO)C12] | 5%
22 | O=c1[nH]cnc2[nH]cc(-c3cn(Cc4cn5cccnc5n4)nn3)c12 [Compound 02C07, O=C1NC=NC=2NC=C(C=3N=NN(C3)CC=4N=C5N=CC=CN5C4)C12] | 82%
23 | O=c1[nH]cnc2[nH]cc(-c3cn([C@H]4COCC[C@@H]4O)nn3)c12 [Compound 02C08, O=C1NC=NC=2NC=C(C=3N=NN(C3)[C@@H]4[C@@H](O)CCOC4)C12] | 49%
24 | O=c1[nH]cnc2[nH]cc(-c3cn(CC4CCNCC4)nn3)c12 [Compound 02C09, O=C1NC=NC=2NC=C(C=3N=NN(C3)CC4CC[NH2+]CC4)C12] | 79%

Row | SMILES | inhibition at 1 µM
25 | O=c1[nH]cnc2[nH]cc(-c3cn(C4(c5ccc(F)cc5)CCOCC4)nn3)c12 [Compound 02C10, Fc1ccc(cc1)C2(N3N=NC(C=4C=5C(=O)NC=NC5NC4)=C3)CCOCC2] | 6%
26 | O=C(O)c1ccc(Cn2cc(-c3c[nH]c4nc[nH]c(=O)c34)nn2)cc1 [Compound 02C11, [O-]C(=O)c1ccc(cc1)CN2N=NC(C=3C=4C(=O)NC=NC4NC3)=C2] | 43%
27 | O=c1[nH]cnc2[nH]cc(-c3cn(-c4ccncc4)nn3)c12 [Compound 02C12, O=C1NC=NC=2NC=C(C=3N=NN(c4ccncc4)C3)C12] | 18%
28 | O=c1[nH]cnc2[nH]cc(-c3cn(CCCN4CCC(C(F)(F)F)CC4)nn3)c12 [Compound 02D01, FC(F)(F)[C@@H]1CC[N@H+](CC1)CCCN2N=NC(C=3C=4C(=O)NC=NC4NC3)=C2] | 23%
29 | COc1ccc(Cl)c(-n2cc(-c3c[nH]c4nc[nH]c(=O)c34)nn2)c1 [Compound 02D02, Clc1c(N2N=NC(C=3C=4C(=O)NC=NC4NC3)=C2)cc(OC)cc1] | 3%
30 | O=c1[nH]cnc2[nH]cc(-c3cn(-c4nccs4)nn3)c12 [Compound 02D03, S1C(=NC=C1)N2N=NC(C=3C=4C(=O)NC=NC4NC3)=C2] | 7%
31 | O=c1[nH]cnc2[nH]cc(-c3cn(C[C@@H]4CNCCO4)nn3)c12 [Compound 02D04, O=C1NC=NC=2NC=C(C=3N=NN(C3)C[C@H]4OCC[NH2+]C4)C12] | 24%
32 | N#Cc1ccc(-n2cc(-c3c[nH]c4nc[nH]c(=O)c34)nn2)cc1 [Compound 02D05, O=C1NC=NC=2NC=C(C=3N=NN(c4ccc(C#N)cc4)C3)C12] | 1.83%
33 | O=c1[nH]cnc2[nH]cc(-c3cn(C[C@@H]4CCOC4)nn3)c12 [Compound 02D06, O=C1NC=NC=2NC=C(C=3N=NN(C3)C[C@H]4COCC4)C12] | 26%
34 | CC(C)C(=O)NCCn1cc(-c2c[nH]c3nc[nH]c(=O)c23)nn1 [Compound 02D07, O=C1NC=NC=2NC=C(C=3N=NN(C3)CCNC(=O)C(C)C)C12] | 41%
35 | O=c1[nH]cnc2[nH]cc(-c3cn(-c4ccnc(CO)c4)nn3)c12 [Compound 02D08, O=C1NC=NC=2NC=C(C=3N=NN(c4cc(ncc4)CO)C3)C12] | 25%
36 | N[C@H]1CC[C@H](n2cc(-c3c[nH]c4nc[nH]c(=O)c34)nn2)CC1 [Compound 02D09, O=C1NC=NC=2NC=C(C=3N=NN(C3)[C@@H]4CC[C@@H]([NH3+])CC4)C12] | 21%
37 | N[C@]12CC[C@](n3cc(-c4c[nH]c5nc[nH]c(=O)c45)nn3)(CC1)C2 [Compound 02D10, O=C1NC=NC=2NC=C(C=3N=NN(C3)[C@]45C[C@]([NH3+])(CC4)CC5)C12] | 11%
38 | O=c1[nH]cnc2[nH]cc(-c3cn(CC[C@@H]4CCCC4(F)F)nn3)c12 [Compound 02D11, F[C@@]1(F)[C@H](CCN2N=NC(C=3C=4C(=O)NC=NC4NC3)=C2)CCC1] | 75%
39 | COc1cccc(OC)c1Cn1cc(-c2c[nH]c3nc[nH]c(=O)c23)nn1 [Compound 02D12, O=C1NC=NC=2NC=C(C=3N=NN(C3)Cc4c(OC)cccc4OC)C12] | 18%
40 | CC(C)(CN)Cn1cc(-c2c[nH]c3nc[nH]c(=O)c23)nn1 [Compound 02E01, O=C1NC=NC=2NC=C(C=3N=NN(C3)CC(C[NH3+])(C)C)C12] | 54%
41 | N#CCCCn1cc(-c2c[nH]c3nc[nH]c(=O)c23)nn1 [Compound 02E02, O=C1NC=NC=2NC=C(C=3N=NN(C3)CCCC#N)C12] | 35%
42 | O=c1[nH]cnc2[nH]cc(-c3cn([C@H]4CCCCC[C@@H]4O)nn3)c12 [Compound 02E03, O=C1NC=NC=2NC=C(C=3N=NN(C3)[C@@H]4[C@@H](O)CCCCC4)C12] | 10%
43 | NCCCCn1cc(-c2c[nH]c3nc[nH]c(=O)c23)nn1 [Compound 02E04, O=C1NC=NC=2NC=C(C=3N=NN(C3)CCCC[NH3+])C12] | 16%
44 | COc1ccc(Cn2cc(-c3c[nH]c4nc[nH]c(=O)c34)nn2)cc1 [Compound 02E05, O=C1NC=NC=2NC=C(C=3N=NN(C3)Cc4ccc(OC)cc4)C12] | 78%
45 | NC1(c2noc(Cn3cc(-c4c[nH]c5nc[nH]c(=O)c45)nn3)n2)CCCCCC1 [Compound 02E06, O=C1NC=NC=2NC=C(C=3N=NN(C3)CC=4ON=C(N4)C5([NH3+])CCCCCC5)C12] | 24%
46 | O=c1[nH]cnc2[nH]cc(-c3cn(Cc4cscn4)nn3)c12 [Compound 02E07, S1C=NC(=C1)CN2N=NC(C=3C=4C(=O)NC=NC4NC3)=C2] | 80%
47 | Nc1ccc(Cl)c(-n2cc(-c3c[nH]c4nc[nH]c(=O)c34)nn2)c1 [Compound 02E08, Clc1c(N2N=NC(C=3C=4C(=O)NC=NC4NC3)=C2)cc(N)cc1] | 13%
